From paper PMC6253998, “Ring-substituted 4-Hydroxy-1H-quinolin-2-ones: Preparation and Biological Activity” (Molecules, 2009)
Values after ≈ are worked out from the molar mass of the structure shown. Where two headings read alike, the source gives them in different places.

How the values were obtained:
[1] = system: Trichosporon beigelii 1188; experiment: In vitro antifungal broth microdilution test; type: cell-based; details: Trichosporon beigelii, 1188, RPMI 1640, pH 7.0, 35 °C, read-out: MIC/IC80 TB
Protocol: The broth microdilution test was used for the assessment of in vitro antifungal activity of the synthesized compounds against Candida albicans ATCC 44859 (CA), Candida tropicalis 156 (CT), Candida krusei ATCC 6258 (CK), Candida glabrata 20/I (CG), Trichosporon beigelii 1188 (TB), Aspergillus fumigatus 231 (AF), Absidia corymbifera 272 (AC), and Trichophyton mentagrophytes 445 (TM). Fluconazole (FLU) was used as the standard of a clinically used antimycotic drug. The procedure was performed with twofold dilution of the compounds in RPMI 1640 (Sevapharma a.s., Prague, Czech Republic) buffered to pH 7.0 with 0.165 mol of 3-morpholino-propane-1-sulfonic acid (MOPS, Sigma, Germany). The final concentrations of the compounds ranged from 500 to 0.975 μmol/l. Drug–free controls were included. The MIC was defined as an 80% or greater (IC80) reduction of growth in comparison with the control. The values of MICs were determined after 24 and 48 h of static incubation at 35 °C. For T. mentagrophytes, the final MICs were determined after 72 and 120 h of incubation.

[2] = system: Candida albicans ATCC 44859; experiment: In vitro antifungal broth microdilution test; type: cell-based; details: Candida albicans
Protocol: (§1) Fluconazole (FLU) was used as the standard of a clinically used antimycotic drug. The procedure was performed with twofold dilution of the compounds in […]., Prague, Czech Republic) buffered to pH 7.0 with 0.165 mol of 3-morpholino-propane-1-sulfonic acid (MOPS, Sigma, Germany). […] Drug-free controls were included. The MIC was defined as an 80% or greater (IC80) reduction of growth in comparison with the control.

[3] = system: Candida tropicalis 156; experiment: In vitro antifungal broth microdilution test; type: cell-based
Protocol: as §1

[4] = system: Candida glabrata 20/I; experiment: In vitro antifungal broth microdilution test; type: cell-based; details: Nakaseomyces glabratus, 20/I
Protocol: as §1

[5] = system: Absidia corymbifera 272; experiment: In vitro antifungal broth microdilution test; type: cell-based
Protocol: as §1

[6] = system: Trichophyton mentagrophytes 445; experiment: In vitro antifungal broth microdilution test; type: cell-based
Protocol: as §1

[7] = system: Candida krusei ATCC 6258; experiment: In vitro antifungal broth microdilution test; type: cell-based; details: Pichia kudriavzevii
Protocol: as §1

[8] = system: Aspergillus fumigatus 231; experiment: In vitro antifungal broth microdilution test; type: cell-based
Protocol: as §1

[9] = system: spinach chloroplasts; experiment: Inhibition of oxygen evolution rate (OER) / photosynthetic electron transport in spinach chloroplasts; type: biochemical, Spinacia oleracea L.; details: for IC50: DCPIP photoreduction, pH 7.2
Protocol: Chloroplasts were prepared from spinach (Spinacia oleracea L.) according to Masarovicova and Kralova. The inhibition of photosynthetic electron transport (PET) in spinach chloroplasts was determined spectrophotometrically (Genesys 6, Thermo Scientific, U.S.A.) using an artificial electron acceptor 2,6-dichlorophenol-indophenol (DCPIP) according to Kralova et al. and the rate of photosynthetic electron transport was monitored as a photoreduction of DCPIP. The measurements were carried out in phosphate buffer (0.02 mol/L, pH 7.2) containing sucrose (0.4 mol/L), MgCl2 (0.005 mol/L) and NaCl (0.015 mol/L). The chlorophyll content was 30 mg/L in these experiments and the samples were irradiated (~100 W/m^2) from 10 cm distance with a halogen lamp (250 W) using a 4 cm water filter to prevent warming of the samples (suspension temperature 22 °C). The studied compounds were dissolved in DMSO due to their limited water solubility. […] The inhibitory efficiency of the studied compounds was expressed by IC50 values, i.e. by molar concentration of the compounds causing 50% decrease in the oxygen evolution rate relative to the untreated control.

[10] = Lipophilicity HPLC determination (capacity factor k / log k); type: physicochemical; details: RP-HPLC, C18 column, MeOH 55.0% / H2O 45.0%, isocratic
Protocol: Hydrophobicities (log P/Clog P values) of the compounds 1-12 were calculated using two commercially available programs and also measured by means of the reversed phase high performance liquid chromatography (RP-HPLC) method for lipophilicity measurement. The procedure was performed under isocratic conditions with methanol as an organic modifier in the mobile phase using an end-capped non-polar C18 stationary RP column. The capacity factors k were determined and subsequent log k values were calculated.
The HPLC separation module Waters Alliance 2695 XE and Waters Photodiode Array Detector 2996 (Waters Corp., Milford, MA, U.S.A.) were used. A Symmetry® C18 5 μm, 4.6 × 250 mm, Part No. WAT054275, (Waters Corp., Milford, MA, U.S.A.) chromatographic column was used. The HPLC separation process was monitored by Millennium32® Chromatography Manager Software, Waters 2004 (Waters Corp., Milford, MA, U.S.A.). The mixture of MeOH p.a. (55.0%) and H2O-HPLC – Mili-Q Grade (45.0%) was used as a mobile phase. The total flow of the column was 0.9 mL/min, injection 30 μL, column temperature 30 °C and sample temperature 10 °C. The detection wavelength 210 nm was chosen. The KI methanolic solution was used for the dead time (TD) determination. Retention times (tR) were measured in minutes. The capacity factors k were calculated using the Millennium32® Chromatography Manager Software according to formula k = (tR - tD) / tD, where tR is the retention time of the solute, whereas tD denotes the dead time obtained via an unretained analyte. Log k, calculated from the capacity factor k, is used as the lipophilicity index converted to log P scale.

[11] = ATCC44859, 24h, RPMI 1640, pH 7.0, 35 °C, read-out: MIC/IC80 CA
[12] = ATCC44859, 48h, RPMI 1640, pH 7.0, 35 °C, read-out: MIC/IC80 CA
[13] = Candida tropicalis, 156, 24h, RPMI 1640, pH 7.0, 35 °C, read-out: MIC/IC80 CT
[14] = Candida tropicalis, 156, 48h, RPMI 1640, pH 7.0, 35 °C, read-out: MIC/IC80 CT
[15] = 24h, RPMI 1640, pH 7.0, 35 °C, read-out: MIC/IC80 CG
[16] = 48h, RPMI 1640, pH 7.0, 35 °C, read-out: MIC/IC80 CG
[17] = Lichtheimia corymbifera, 272, 24h, RPMI 1640, pH 7.0, 35 °C, read-out: MIC/IC80 AC
[18] = Lichtheimia corymbifera, 272, 48h, RPMI 1640, pH 7.0, 35 °C, read-out: MIC/IC80 AC
[19] = Trichophyton mentagrophytes, 445, 72h, RPMI 1640, pH 7.0, 35 °C, read-out: MIC/IC80 TM
[20] = Trichophyton mentagrophytes, 445, 120h, RPMI 1640, pH 7.0, 35 °C, read-out: MIC/IC80 TM
[21] = ATCC6258, 24h, RPMI 1640, pH 7.0, 35 °C, read-out: MIC/IC80 CK
[22] = ATCC6258, 48h, RPMI 1640, pH 7.0, 35 °C, read-out: MIC/IC80 CK
[23] = Aspergillus fumigatus, 231, 24h, RPMI 1640, pH 7.0, 35 °C, read-out: MIC/IC80 AF
[24] = Aspergillus fumigatus, 231, 48h, RPMI 1640, pH 7.0, 35 °C, read-out: MIC/IC80 AF

| Structure (SMILES) | MIC ([1]; 24h) | MIC ([1]; 48h) | MIC [2, 11] | MIC [2, 12] | MIC [3, 13] | MIC [3, 14] | MIC [4, 15] | MIC [4, 16] | MIC [5, 17] | MIC [5, 18] | MIC [6, 19] | MIC [6, 20] | MIC [7, 21] | MIC [7, 22] | MIC [8, 23] | MIC [8, 24] | IC50 [9] | log k [10] | also measured |
| --- | --- | --- | --- | --- | --- | --- | --- | --- | --- | --- | --- | --- | --- | --- | --- | --- | --- | --- | --- |
| OC(Cn1cncn1)(Cn1cncn1)c1ccc(F)cc1F [FLU, Fluconazole, reference compound] | 0.24 µM (≈ 0.0735 µg/mL) | 0.48 µM (≈ 0.147 µg/mL) | 0.06 µM (≈ 0.0184 µg/mL) | 0.12 µM (≈ 0.0368 µg/mL) | 0.12 µM (≈ 0.0368 µg/mL) | > 125 µM | 0.98 µM (≈ 0.3 µg/mL) | 3.91 µM (≈ 1.2 µg/mL) | > 125 µM | > 125 µM | 1.95 µM (≈ 0.597 µg/mL) | 3.91 µM (≈ 1.2 µg/mL) | 3.91 µM (≈ 1.2 µg/mL) | 15.6 µM (≈ 4.78 µg/mL) | > 125 µM | > 125 µM |  |  |  |
| O=C(O)c1c(O)c2ccccc2[nH]c1=O [Compound 10, 4-Hydroxy-2-oxo-1,2-dihydroquinoline-3-carboxylic acid] | > 500 µM | > 500 µM | > 500 µM | > 500 µM | > 500 µM | > 500 µM | > 500 µM | > 500 µM | > 500 µM | > 500 µM | > 500 µM | > 500 µM | > 500 µM | > 500 µM | > 500 µM | > 500 µM | 567 µM | 0.0118 |  |
| O=C(O)c1ccc2[nH]c(=O)cc(O)c2c1O [Compound 3, 4,5-Dihydroxy-2-oxo-1,2-dihydroquinoline-6-carboxylic acid] | 250 µM (≈ 55.3 µg/mL) | > 500 µM | 125 µM (≈ 27.6 µg/mL) | 125 µM (≈ 27.6 µg/mL) | 500 µM (≈ 111 µg/mL) | > 500 µM | 250 µM (≈ 55.3 µg/mL) | 250 µM (≈ 55.3 µg/mL) | > 500 µM | > 500 µM | > 500 µM | > 500 µM | > 500 µM | > 500 µM | > 500 µM | > 500 µM | 346 µM | 0.0002 |  |
| O=c1cc(O)c2ccccc2[nH]1 [Compound 1, 4-Hydroxyquinolin-2(1H)-one] | > 500 µM | > 500 µM |  |  |  |  |  |  |  |  |  |  |  |  |  |  | 925 µM | 0.0664 | MIC ([2]; ATCC44859, 24 h, pH 7, read-out: MIC/IC80 CA): > 500 µM; MIC ([2]; ATCC44859, 48 h, pH 7, read-out: MIC/IC80 CA): > 500 µM; MIC ([3]; Candida tropicalis, 156, 24 h, pH 7, read-out: MIC/IC80 CT): > 500 µM; MIC ([3]; Candida tropicalis, 156, 48 h, pH 7, read-out: MIC/IC80 CT): > 500 µM; MIC ([4]; 24 h, pH 7, read-out: MIC/IC80 CG): > 500 µM; MIC ([4]; 48 h, pH 7, read-out: MIC/IC80 CG): > 500 µM; MIC ([5]; Lichtheimia corymbifera, 272, 24 h, pH 7, read-out: MIC/IC80 AC): > 500 µM; MIC ([5]; Lichtheimia corymbifera, 272, 48 h, pH 7, read-out: MIC/IC80 AC): > 500 µM; MIC ([6]; Trichophyton mentagrophytes, 445, 72 h, pH 7, read-out: MIC/IC80 TM): > 500 µM; MIC ([6]; Trichophyton mentagrophytes, 445, 120 h, pH 7, read-out: MIC/IC80 TM): > 500 µM; MIC ([7]; ATCC6258, 24 h, pH 7, read-out: MIC/IC80 CK): > 500 µM; MIC ([7]; ATCC6258, 48 h, pH 7, read-out: MIC/IC80 CK): > 500 µM; MIC ([8]; Aspergillus fumigatus, 231, 24 h, pH 7, read-out: MIC/IC80 AF): > 500 µM; MIC ([8]; Aspergillus fumigatus, 231, 48 h, pH 7, read-out: MIC/IC80 AF): > 500 µM |
| O=c1[nH]c2ccccc2c(O)c1[N+](=O)[O-] [Compound 5, 4-Hydroxy-3-nitroquinolin-2(1H)-one] | > 500 µM | > 500 µM | > 500 µM | > 500 µM | > 500 µM | > 500 µM | > 500 µM | > 500 µM | > 500 µM | > 500 µM | > 500 µM | > 500 µM | > 500 µM | > 500 µM | > 500 µM | > 500 µM | 510 µM | 0.4052 | OER inhibition effectiveness relative to compound 1 [9]: approximately twice as effective as compound 1 |
